# Experimental data from patent US20210002725A1, “METHODS FOR THE DIAGNOSIS OF METABOLIC DISORDERS USING EPIMETABOLIC SHIFTERS, MULTIDIMENSIONAL INTRACELLULAR MOLECULES, OR ENVIRONMENTAL INFLUENCES” (Berg LLC, priority 2009, published 2021).
# Test system: Pyruvate Kinase M2 (PKM2)
# Assay: Western blot of Pyruvate Kinase M2 levels in cells treated with Coenzyme Q10
# Type: cell-based, human
# Method: The samples were processed and run on a 4-12% Bis-Tris Novex NuPAGE gel as described above. The gels were run, transferred and stained essentially as described above.
# The lactate dehydrogenase blots were stripped by incubating for 30 minutes with methanol, followed by two 10 minute washes with TBS-T, then 30 minutes of incubation with Stripping buffer at 50 deg C., and followed by two washes with 100 ml or more of TBS-T for 30′ each. The 2 blots were scanned in laser scanner to check for complete stripping. The blots were activated with methanol for 5 seconds, washed with water for 5 minutes, and TBST for 15 minutes. The blots were blocked for 1 hour with 5% blocking reagent in TBS-T at room temperature and then washed 3 times with TBS-T (1×-15′; 2×5′ each) and probed with the rabbit polyclonal antibody for Pyruvate Kinase M2 in 5% BSA (NOVUS BIOLOGICALS catalog #H00005315-D01P) at 1:500 dilution overnight at 4 deg C with shaking. After the overnight incubation with primary antibody for Pyruvate Kinase M2, the membranes were washed 3 times with TBS-T (1×-15′; 2×5′ each) and probed with the secondary antibody (antirabbit; 1:10,000 dilution) for 1 h on the orbital tilting shaker at room temperature. After 1 h of incubation with secondary antibodies, the blots were washed 3 times with TBS-T (1×-15′; 2×5′ each) and then incubated with ECF reagent for 5 minutes and then each blot scanned with 5100 Fuji Laser scanner at 25 uM resolution, 16 bit, green laser, at 400V and at 500 V.
# The HASMC samples were processed and the gels were run, transferred, stained and scanned essentially as described above.
# The above blots were stripped by incubating for 30 minutes with methanol, followed by two 10 minute washes with TBS-T, then 30 minutes of incubation with Stripping buffer at 50 deg C., and followed by two washes with 100 ml or more of TBS-T for 30′ each. The blots were scanned in laser scanner to check for complete stripping. The blots were activated with methanol for 5 seconds, washed with water for 5 minutes, and TBST for 15 minutes. The blots were blocked for 1 hour with 5% blocking reagent in TBS-T at room temperature and then washed 3 times with TBS-T (1×-15′; 2×5′ each) and probed with the primary antibody for PKM2, SDHB or SDHC in 5% BSA in TBS-T by incubation overnight at 4 deg C. with gentle shaking. The primary antibody for SDHC (ABNOVA H00006391-M02; antimouse) was at 1:500 dilution. The primary antibody for SDHB was from Abcam ab4714-200; antimouse; at 1:1000 dilution. The primary antibody for Pyruvate Kinase M2 (PKM2) was from Novus Biologicals H00005315-DOIP; antirabbit; at 1:500 dilution. After incubation with primary antibodies, the membranes were washed 3 times with TBS-T (1×-15′; 2×5′ each) and probed with the secondary antibody (SDHB & C antimouse; and PKM2 antirabbit; 1:10,000 dilution) for 1 hon the orbital tilting shaker at room temperature. After 1 h of incubation, the blots were washed 3 times with TBS-T (1×-15′; 2×5′ each) and incubated with ECF reagent for 5 minutes and then each blot scanned with 5100 Fuji Laser scanner at 25 uM resolution, 16 bit, green laser, at 400V and at 500 V.
compound,measurement,setting,value
"COC1=C(OC)C(=O)C(C/C=C(\C)CC/C=C(\C)CC/C=C(\C)CC/C=C(\C)CC/C=C(\C)CC/C=C(\C)CC/C=C(\C)CC/C=C(\C)CC/C=C(\C)CCC=C(C)C)=C(C)C1=O [Q10, Coenzyme Q10]",PKM2 Upper Band Normalized Intensity,"HASMC, 5 g, 48 h, 50 μM",811
same,PKM2 Upper Band Normalized Intensity,"HASMC, 5 g, 48 h, 100 μM",611
same,PKM2 Upper Band Normalized Intensity,"HASMC, 22 G, 24 h, 50 μM",477
same,PKM2 Upper Band Normalized Intensity,"HASMC, 22 G, 24 h, 100 μM",701
same,PKM2 Upper Band Normalized Intensity,"HASMC, 22 G, 48 h, 50 μM",595
same,PKM2 Upper Band Normalized Intensity,"HASMC, 22 G, 48 h, 100 μM",496
same,PKM2 Upper Band Normalized Volume,"HepG2, 5 g, 24 h, 50 μM",29269
same,PKM2 Upper Band Normalized Volume,"HepG2, 5 g, 24 h, 100 μM",18307
same,PKM2 Upper Band Normalized Intensity,"HepG2, 5 g, 48 h, 50 μM",303
same,PKM2 Upper Band Normalized Intensity,"HepG2, 5 g, 48 h, 100 μM",354
same,PKM2 Upper Band Normalized Volume,"HepG2, 22 G, 24 h, 50 μM",22294
same,PKM2 Upper Band Normalized Volume,"HepG2, 22 G, 24 h, 100 μM",19560
same,PKM2 Upper Band Normalized Intensity,"HepG2, 22 G, 48 h, 50 μM",562
same,PKM2 Upper Band Normalized Intensity,"HepG2, 22 G, 48 h, 100 μM",601
